Experimental data: ChEMBL document CHEMBL2396653, “Synthesis and antimycobacterial evaluation of N-substituted 5-chloropyrazine-2-carboxamides” (Bioorg Med Chem Lett, 2013)
≈ marks a conversion by molar mass, not a printed value. Calls of active or inactive are those of the source. The rule behind the calls is not given here.

Experiments:
[1] = tested on: Escherichia coli; assay: Antibacterial activity against Escherichia coli CCM 4517 assessed as growth inhibition after 24 to 48 hrs by microbroth dilution method; type: functional, organism-based
[2] = Stability of the compound at pH 7; type: physicochemical; conditions: buffer
[3] = tested on: Staphylococcus epidermidis; assay: Antibacterial activity against Staphylococcus epidermidis H 6966/08 clinical isolate assessed as growth inhibition after 24 to 48 hrs by microbroth dilution method; type: functional, organism-based
[4] = tested on: Trichophyton mentagrophytes; assay: Antifungal activity against Trichophyton mentagrophytes 445 assessed as growth inhibition after 72 to 120 hrs by microbroth dilution method; type: functional, organism-based
[5] = tested on: Klebsiella pneumoniae; assay: Antibacterial activity against ESBL-positive Klebsiella pneumoniae J 14368/08 clinical isolate assessed as growth inhibition after 24 to 48 hrs by microbroth dilution method; type: functional, organism-based
[6] = tested on: Candida albicans; assay: Antifungal activity against Candida albicans ATCC 44859 assessed as growth inhibition after 24 to 48 hrs by microbroth dilution method; type: functional, organism-based
[7] = tested on: Trichosporon asahii; assay: Antifungal activity against Trichosporon asahii 1188 assessed as growth inhibition after 24 to 48 hrs by microbroth dilution method; type: functional, organism-based
[8] = tested on: Nakaseomyces glabratus; assay: Antifungal activity against Candida glabrata 20/I assessed as growth inhibition after 24 to 48 hrs by microbroth dilution method; type: functional, organism-based
[9] = tested on: Mycobacterium tuberculosis; assay: Antimycobacterial activity against Mycobacterium tuberculosis H37Rv assessed as growth inhibition after 14 days by microdilution method; type: functional; conditions: 336 h
[10] = tested on: Mycobacterium avium; assay: Antimycobacterial activity against Mycobacterium avium CNCTC My 152/73 assessed as growth inhibition after 14 days by microdilution method; type: functional; conditions: CNCTC My 152/73, 336 h
[11] = tested on: Staphylococcus aureus; assay: Antibacterial activity against methicillin-resistant Staphylococcus aureus H 5996/08 clinical isolate assessed as growth inhibition after 24 to 48 hrs by microbroth dilution method; type: functional, organism-based
[12] = tested on: Candida tropicalis; assay: Antifungal activity against Candida tropicalis 156 assessed as growth inhibition after 24 to 48 hrs by microbroth dilution method; type: functional, organism-based
[13] = tested on: Lichtheimia corymbifera; assay: Antifungal activity against Absidia corymbifera 272 assessed as growth inhibition after 24 to 48 hrs by microbroth dilution method; type: functional, organism-based
[14] = tested on: Mycobacterium avium; assay: Antimycobacterial activity against Mycobacterium avium CNCTC My 80/72 assessed as growth inhibition after 14 days by microdilution method; type: functional; conditions: CNCTC My 80/72, 336 h
[15] = tested on: Aspergillus fumigatus; assay: Antifungal activity against Aspergillus fumigatus 231 assessed as growth inhibition after 24 to 48 hrs by microbroth dilution method; type: functional, organism-based
[16] = tested on: Klebsiella pneumoniae; assay: Antibacterial activity against Klebsiella pneumoniae D 11750/08 clinical isolate assessed as growth inhibition after 24 to 48 hrs by microbroth dilution method; type: functional, organism-based
[17] = Lipophilicity, log K of the compound by HPLC analysis; type: physicochemical
[18] = tested on: Pseudomonas aeruginosa; assay: Antibacterial activity against Pseudomonas aeruginosa CCM 1961 assessed as growth inhibition after 24 to 48 hrs by microbroth dilution method; type: functional, organism-based
[19] = tested on: Mycobacterium kansasii; assay: Antimycobacterial activity against Mycobacterium kansasii CNCTC My 235/80 assessed as growth inhibition after 14 days by microdilution method; type: functional; conditions: CNCTC My 235/80, 336 h
[20] = tested on: Pichia kudriavzevii; assay: Antifungal activity against Candida krusei E28 assessed as growth inhibition after 24 to 48 hrs by microbroth dilution method; type: functional, organism-based
[21] = tested on: Enterococcus; assay: Antibacterial activity against Enterococcus sp. J 14365/08 clinical isolate assessed as growth inhibition after 24 to 48 hrs by microbroth dilution method; type: functional, organism-based
[22] = tested on: Staphylococcus aureus; assay: Antibacterial activity against Staphylococcus aureus CCM 4516/08 assessed as growth inhibition after 24 to 48 hrs by microbroth dilution method; type: functional, organism-based
[23] = tested on: Mycobacterium tuberculosis; assay: Ratio of pyrazinamide MIC to compound MIC for Mycobacterium tuberculosis H37Rv; type: functional
[24] = tested on: Mycolicibacterium fortuitum; assay: Antimycobacterial activity against pyrazinamide-resistant Mycobacterium fortuitum ATCC 49601 assessed as growth inhibition after 24 hrs to 2 weeks by microbroth dilution method; type: functional
[25] = tested on: Mycobacterium tuberculosis; assay: Antimycobacterial activity against pyrazinamide-susceptible Mycobacterium tuberculosis ATCC 27294 assessed as growth inhibition after 24 hrs to 2 weeks by microbroth dilution method; type: functional
[26] = tested on: Mycobacterium tuberculosis; assay: Antimycobacterial activity against pyrazinamide-susceptible Mycobacterium tuberculosis ATCC 35801 assessed as growth inhibition after 24 hrs to 2 weeks by microbroth dilution method; type: functional
[27] = tested on: Mycolicibacterium fortuitum; assay: Antimycobacterial activity against pyrazinamide-resistant Mycobacterium fortuitum ATCC 49403 assessed as growth inhibition after 24 hrs to 2 weeks by microbroth dilution method; type: functional
[28] = tested on: Mycobacterium kansasii; assay: Antimycobacterial activity against pyrazinamide-resistant Mycobacterium kansasii assessed as growth inhibition after 24 hrs to 2 weeks by microbroth dilution method; type: functional

SMILES: O=C(NCc1ccccc1F)c1cnc(Cl)cn1
- growth inhibition (GI) [1]: inactive
- Stability [2]: Stable
- growth inhibition (GI) [3]: inactive
- growth inhibition (GI) [4]: inactive
- growth inhibition (GI) [5]: inactive
- growth inhibition (GI) [6]: inactive
- growth inhibition (GI) [7]: inactive
- growth inhibition (GI) [8]: inactive
- MIC [9]: 25 µg/mL (≈ 94.1 µM)
- MIC [10]: > 100 µg/mL
- growth inhibition (GI) [11]: inactive
- growth inhibition (GI) [12]: inactive
- growth inhibition (GI) [13]: inactive
- MIC [14]: > 100 µg/mL
- growth inhibition (GI) [15]: inactive
- growth inhibition (GI) [16]: inactive
- log K [17]: 0.3395
- growth inhibition (GI) [18]: inactive
- MIC [19]: 50 µg/mL (≈ 188 µM)
- growth inhibition (GI) [20]: inactive
- growth inhibition (GI) [21]: inactive
- growth inhibition (GI) [22]: inactive

SMILES: O=C(NCc1ccc(Br)cc1)c1cnc(Cl)cn1
- growth inhibition (GI) [1]: inactive
- Stability [2]: Stable
- growth inhibition (GI) [3]: inactive
- growth inhibition (GI) [4]: inactive
- growth inhibition (GI) [5]: inactive
- growth inhibition (GI) [6]: inactive
- growth inhibition (GI) [7]: inactive
- growth inhibition (GI) [8]: inactive
- MIC [9]: 12.5 µg/mL (≈ 38.3 µM)
- MIC [10]: > 100 µg/mL
- growth inhibition (GI) [11]: inactive
- growth inhibition (GI) [12]: inactive
- growth inhibition (GI) [13]: inactive
- MIC [14]: > 100 µg/mL
- growth inhibition (GI) [15]: inactive
- growth inhibition (GI) [16]: inactive
- log K [17]: 0.4981
- growth inhibition (GI) [18]: inactive
- MIC [19]: 50 µg/mL (≈ 153 µM)
- growth inhibition (GI) [20]: inactive
- Ratio [23]: 3
- growth inhibition (GI) [21]: inactive
- growth inhibition (GI) [22]: inactive

SMILES: O=C(Nc1cccc(Cl)c1)c1cnc(Cl)cn1
- growth inhibition (GI) [1]: inactive
- Stability [2]: Stable
- growth inhibition (GI) [3]: inactive
- growth inhibition (GI) [4]: inactive
- growth inhibition (GI) [5]: inactive
- growth inhibition (GI) [6]: inactive
- growth inhibition (GI) [7]: inactive
- growth inhibition (GI) [8]: inactive
- MIC [9]: 3.13 µg/mL (≈ 11.7 µM)
- MIC [10]: 25 µg/mL (≈ 93.2 µM)
- growth inhibition (GI) [11]: inactive
- growth inhibition (GI) [12]: inactive
- growth inhibition (GI) [13]: inactive
- MIC [14]: 25 µg/mL (≈ 93.2 µM)
- growth inhibition (GI) [15]: inactive
- growth inhibition (GI) [16]: inactive
- log K [17]: 0.5873
- growth inhibition (GI) [18]: inactive
- MIC [19]: 25 µg/mL (≈ 93.2 µM)
- growth inhibition (GI) [20]: inactive
- growth inhibition (GI) [21]: inactive
- growth inhibition (GI) [22]: inactive

SMILES: NC(=O)c1cnc(Cl)cn1
- MIC [24]: 8 µg/mL (≈ 50.8 µM)
- MIC [25]: 16 µg/mL (≈ 102 µM)
- MIC [26]: 16 µg/mL (≈ 102 µM)
- MIC [27]: 8 µg/mL (≈ 50.8 µM)
- MIC [28]: 8 µg/mL (≈ 50.8 µM)

SMILES: O=C(NCc1ccccc1Cl)c1cnc(Cl)cn1
- growth inhibition (GI) [1]: inactive
- Stability [2]: Stable
- growth inhibition (GI) [3]: inactive
- growth inhibition (GI) [4]: inactive
- growth inhibition (GI) [5]: inactive
- growth inhibition (GI) [6]: inactive
- growth inhibition (GI) [7]: inactive
- growth inhibition (GI) [8]: inactive
- MIC [9]: 25 µg/mL (≈ 88.6 µM)
- MIC [10]: > 100 µg/mL
- growth inhibition (GI) [11]: inactive
- growth inhibition (GI) [12]: inactive
- growth inhibition (GI) [13]: inactive
- MIC [14]: > 100 µg/mL
- growth inhibition (GI) [15]: inactive
- growth inhibition (GI) [16]: inactive
- log K [17]: 0.4168
- growth inhibition (GI) [18]: inactive
- MIC [19]: 6.25 µg/mL (≈ 22.2 µM)
- growth inhibition (GI) [20]: inactive
- growth inhibition (GI) [21]: inactive
- growth inhibition (GI) [22]: inactive
